14 molecules from patent US7816408B2, “Calcium receptor active compounds” (NPS Pharmaceuticals, Inc., priority 2002, dated 2010) can be followed below.

For one assay, the system named is normal male SD rats. As to the kind of experiment: Plasma Ca^2+ level of rats after single oral administration. It is filed as in vivo. The conditions noted are these: rat, mean of six animals, vehicle 10% cyclodextrin (** 1% sodium-CMC); for Plasma Ca^2+ (mmol/l) 1 hr: 1 hr after single oral dose 30 μmol/kg; for Plasma Ca^2+ (mmol/l) 2 hr: 2 hr after single oral dose 30 μmol/kg; for Plasma Ca^2+ (mmol/l) 4 hr: 4 hr after single oral dose 30 μmol/kg; for Plasma Ca^2+ (mmol/l) 8 hr: 8 hr after single oral dose 30 μmol/kg; for Plasma Ca^2+ (mmol/l) 0 hr: 0 hr = before oral administration of 30 μmol/kg; for Plasma Ca^2+ (mmol/l) 23 hr (footnote *c, 24 hr column): 23 hr after single oral dose 30 μmol/kg. In outline:
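Normal male SD rats (n=6/group) received a single oral dose of 30 μmol/kg in 10% cyclodextrin or, for some compounds, 1% sodium-CMC; vehicle controls received 2.5 ml/kg. Tail blood was drawn pre-dose and at 30 min and 1, 2, 4, 8 and 24 h for plasma Ca^2+ and serum PTH. PTH was compared with vehicle by Steel's test.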

The next assay concerns the target T1, human calcium receptor (Homo sapiens, UniProt P41180).
T1 construct: expressed in transfected cells; host or cells: HEK293
T1 sequence (P41180 20-1078): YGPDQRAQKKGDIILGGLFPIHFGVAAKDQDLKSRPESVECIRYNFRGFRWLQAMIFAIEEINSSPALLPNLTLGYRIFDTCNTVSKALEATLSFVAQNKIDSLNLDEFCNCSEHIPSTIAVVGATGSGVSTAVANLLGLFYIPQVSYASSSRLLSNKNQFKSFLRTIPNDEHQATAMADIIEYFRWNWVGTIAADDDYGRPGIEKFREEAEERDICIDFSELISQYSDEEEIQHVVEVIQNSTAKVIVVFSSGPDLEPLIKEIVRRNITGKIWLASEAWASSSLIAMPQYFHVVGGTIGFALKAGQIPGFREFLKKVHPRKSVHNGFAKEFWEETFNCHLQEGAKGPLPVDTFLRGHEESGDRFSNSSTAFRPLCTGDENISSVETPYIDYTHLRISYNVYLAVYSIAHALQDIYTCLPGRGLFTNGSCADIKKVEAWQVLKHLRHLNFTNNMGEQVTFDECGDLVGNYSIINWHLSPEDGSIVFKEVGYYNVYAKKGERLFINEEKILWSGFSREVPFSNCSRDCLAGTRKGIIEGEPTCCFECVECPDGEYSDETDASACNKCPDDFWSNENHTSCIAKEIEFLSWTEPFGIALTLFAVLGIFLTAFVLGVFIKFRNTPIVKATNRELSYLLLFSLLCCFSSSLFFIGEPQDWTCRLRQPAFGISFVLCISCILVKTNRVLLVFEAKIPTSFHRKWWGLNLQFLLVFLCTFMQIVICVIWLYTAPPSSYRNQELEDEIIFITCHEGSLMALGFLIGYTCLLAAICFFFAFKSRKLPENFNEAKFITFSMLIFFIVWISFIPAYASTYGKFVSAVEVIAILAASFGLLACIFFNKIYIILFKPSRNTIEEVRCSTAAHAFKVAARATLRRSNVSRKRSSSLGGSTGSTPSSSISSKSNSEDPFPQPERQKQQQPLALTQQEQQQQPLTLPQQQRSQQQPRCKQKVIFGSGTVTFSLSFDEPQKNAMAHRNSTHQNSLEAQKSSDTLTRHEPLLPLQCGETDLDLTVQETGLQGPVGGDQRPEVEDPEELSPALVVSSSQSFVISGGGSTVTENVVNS
As to the kind of experiment: Activity on calcium receptors: fluo-3 fluorescence in HEK293 cells transfected with human calcium receptor gene. The class given is cell-based. Conditions: HEK293 cells transfected with plasmid pHuPCaR4.0 (human calcium receptor gene), loaded with fluo-3; 1 mM CaCl2, 1 mM MgCl2. In a few lines: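 HEK293 cells transfected with human calcium receptor plasmid, loaded 1 h at 37 °C with about 5 μM fluo-3/AM. Cells then rinsed into HEPES-buffered HBSS with 1 mM CaCl2 and 1 mM MgCl2. Fluorescence read at 485/540 nm after compound addition.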

On to `C[C@@H](NCCC(=O)N(Cc1ccc(Cl)cc1)Cc1ccc2ccccc2c1)c1cccc2ccccc12` [Compound K-2291, N1-(4-chlorobenzyl)-N1-(2-naphthylmethyl)-3-{[(1R)-1-(1-naphthyl)ethyl]amino}propanamide], for which, in the assay with normal male SD rats, the “Plasma Ca^2+ (mmol/l) 1 hr” value was 1.298 mmol/L, the “Plasma Ca^2+ (mmol/l) 2 hr” value was 1.247 mmol/L, the “Plasma Ca^2+ (mmol/l) 4 hr” value is 1.130 mmol/L and the “Plasma Ca^2+ (mmol/l) 8 hr” value is 1.132 mmol/L. For the same molecule, the EC50 on human calcium receptor was found to be 0.081 µM.

As to `C[C@@H](NCCCCCCCSc1c(F)c(F)c(C(F)(F)F)c(F)c1F)c1cccc2ccccc12` [Compound K-2292, N-[(1R)-1-(1-naphthyl)ethyl]-N-(7-{[2,3,5,6-tetrafluoro-4-(trifluoromethyl)phenyl]thio}heptyl)amine], in the assay with normal male SD rats, the “Plasma Ca^2+ (mmol/l) 1 hr” value amounted to 1.375 mmol/L, the “Plasma Ca^2+ (mmol/l) 2 hr” value was 1.252 mmol/L, the “Plasma Ca^2+ (mmol/l) 4 hr” value was found to be 1.152 mmol/L and the “Plasma Ca^2+ (mmol/l) 8 hr” value is 1.108 mmol/L. At human calcium receptor, the concentration for a half-maximal effect (EC50) amounted to 0.074 µM.

For the molecule `C[C@@H](NCCCCSc1ccc(Cl)cc1)c1cccc2ccccc12` [Compound K-2293, N-{4-[(4-chlorophenyl)thio]butyl}-N-[(1R)-1-(1-naphthyl)ethyl]amine], in the assay on normal male SD rats, the “Plasma Ca^2+ (mmol/l) 1 hr” value worked out at 1.245 mmol/L, the “Plasma Ca^2+ (mmol/l) 2 hr” value is 1.152 mmol/L, the “Plasma Ca^2+ (mmol/l) 4 hr” value is 1.068 mmol/L and the “Plasma Ca^2+ (mmol/l) 8 hr” value is 1.088 mmol/L. For the same molecule, at human calcium receptor, the EC50 turned out to be 0.28 µM.

On to `Cc1ccc(CN(Cc2ccc(Cl)c(Cl)c2)C(=O)CCN[C@H](C)c2cccc3ccccc23)cc1` [Compound K-2294, N1-(3,4-dichlorobenzyl)-N1-(4-methylbenzyl)-3-{[(1R)-1-(1-naphthyl)ethyl]amino}propanamide], for which, in the assay on normal male SD rats, the “Plasma Ca^2+ (mmol/l) 1 hr” value is 1.357 mmol/L, the “Plasma Ca^2+ (mmol/l) 2 hr” value is 1.255 mmol/L, the “Plasma Ca^2+ (mmol/l) 4 hr” value amounted to 1.117 mmol/L and the “Plasma Ca^2+ (mmol/l) 8 hr” value was found to be 1.022 mmol/L. For the same molecule, the EC50 at human calcium receptor turned out to be 0.062 µM.

As to `C[C@@H](NCCCCCSc1cc(Cl)ccc1Cl)c1cccc2ccccc12` [Compound K-2296, N-{[5-(2,5-dichlorophenyl)thio]pentyl}N-[(1R)-1-(1-naphthyl)ethyl]amine], in the assay with normal male SD rats, the “Plasma Ca^2+ (mmol/l) 0 hr” value came to 1.410 mmol/L, the “Plasma Ca^2+ (mmol/l) 1 hr” value came out at 1.340 mmol/L, the “Plasma Ca^2+ (mmol/l) 2 hr” value is 1.195 mmol/L and the “Plasma Ca^2+ (mmol/l) 4 hr” value was 1.113 mmol/L. In addition, the “Plasma Ca^2+ (mmol/l) 8 hr” value in the assay on normal male SD rats amounted to 1.083 mmol/L. The EC50 on human calcium receptor was determined as 0.22 µM.

As for `C[C@@H](NCCCCSc1c(F)c(F)c(C(F)(F)F)c(F)c1F)c1cccc2ccccc12` [Compound K-2297, N-[(1R)-1-(1-naphthyl)ethyl]-N-(4-{[2,3,5,6-tetrafluoro-4-(trifluoromethyl)phenyl]thio}butyl)amine], in the assay on normal male SD rats, the “Plasma Ca^2+ (mmol/l) 1 hr” value came out at 1.393 mmol/L, the “Plasma Ca^2+ (mmol/l) 2 hr” value amounted to 1.305 mmol/L, the “Plasma Ca^2+ (mmol/l) 4 hr” value is 1.172 mmol/L and the “Plasma Ca^2+ (mmol/l) 8 hr” value was 1.082 mmol/L. The EC50 at human calcium receptor was 0.23 µM.

For `C[C@@H](NCCCCSc1cc(Cl)ccc1Cl)c1cccc2ccccc12` [Compound K-2298, N-{4-[(2,5-dichlorophenyl)thio]butyl}-N-[(1R)-1-(1-naphthyl)ethyl]amine], in the assay on normal male SD rats, the “Plasma Ca^2+ (mmol/l) 1 hr” value stood at 1.348 mmol/L, the “Plasma Ca^2+ (mmol/l) 2 hr” value worked out at 1.265 mmol/L, the “Plasma Ca^2+ (mmol/l) 4 hr” value turned out to be 1.187 mmol/L and the “Plasma Ca^2+ (mmol/l) 8 hr” value was found to be 1.100 mmol/L. Also, the EC50 at human calcium receptor was 0.34 µM.

Consider `Cc1ccc(CN(Cc2ccc(C(F)(F)F)cc2)C(=O)CCN[C@H](C)c2cccc3ccccc23)cc1` [Compound K-2299, N1-(4-methylbenzyl)-N1-[4-(trifluoromethyl)benzyl]-3-{[(1R)-1-(1-naphthyl)ethyl]amino}propanamide], for which, in the assay with normal male SD rats, the “Plasma Ca^2+ (mmol/l) 1 hr” value turned out to be 1.287 mmol/L, the “Plasma Ca^2+ (mmol/l) 2 hr” value came out at 1.192 mmol/L, the “Plasma Ca^2+ (mmol/l) 4 hr” value came out at 0.998 mmol/L and the “Plasma Ca^2+ (mmol/l) 8 hr” value came to 0.983 mmol/L. Further, the “Plasma Ca^2+ (mmol/l) 23 hr (footnote *c, 24 hr column)” value (“Plasma Ca^2+ (mmol/l) 23 hr” for short) in the assay with normal male SD rats is reported as 1.382*^c mmol/l. Besides, the EC50 on human calcium receptor was found to be 0.15 µM.

As to `Cc1ccc(CN(Cc2ccc(C)cc2)C(=O)CCN[C@H](C)c2cccc3ccccc23)cc1` [Compound K-2300, N1,N1-di(4-methylbenzyl)-3-{[(1R)-1-(1-naphthyl)ethyl]amino}propanamide], in the assay on normal male SD rats, the “Plasma Ca^2+ (mmol/l) 1 hr” value is 1.293 mmol/L, the “Plasma Ca^2+ (mmol/l) 2 hr” value was found to be 1.158 mmol/L, the “Plasma Ca^2+ (mmol/l) 4 hr” value was found to be 0.958 mmol/L and the “Plasma Ca^2+ (mmol/l) 8 hr” value turned out to be 1.022 mmol/L. Moreover, the “Plasma Ca^2+ (mmol/l) 23 hr” value in the assay with normal male SD rats was 1.397*^c mmol/l. Further, the EC50 at human calcium receptor was determined as 0.14 µM.

Regarding `C[C@@H](NCCCCCCSc1ccc(OC(F)(F)F)cc1)c1cccc2ccccc12` [Compound K-2301], in the assay with normal male SD rats, the “Plasma Ca^2+ (mmol/l) 0 hr” value came out at 1.397 mmol/L, the “Plasma Ca^2+ (mmol/l) 1 hr” value worked out at 1.237 mmol/L, the “Plasma Ca^2+ (mmol/l) 2 hr” value was 1.165 mmol/L and the “Plasma Ca^2+ (mmol/l) 4 hr” value amounted to 1.077 mmol/L. Also, in the assay with normal male SD rats, the “Plasma Ca^2+ (mmol/l) 8 hr” value was determined as 1.075 mmol/L and the “Plasma Ca^2+ (mmol/l) 23 hr” value is listed as 1.350*^c mmol/l. The EC50 at human calcium receptor was 0.8 µM.

Take `Cc1ccc(SCCCCN[C@H](C)c2cccc3ccccc23)c(C)c1` [Compound K-2302, N-{4-[(2,4-dimethylphenyl)thio]butyl}-N-[(1R)-1-(1-naphthyl)ethyl]amine]: in the assay on normal male SD rats, the “Plasma Ca^2+ (mmol/l) 1 hr” value worked out at 1.238 mmol/L, the “Plasma Ca^2+ (mmol/l) 2 hr” value was 1.130 mmol/L, the “Plasma Ca^2+ (mmol/l) 4 hr” value stood at 0.978 mmol/L and the “Plasma Ca^2+ (mmol/l) 8 hr” value stood at 1.010 mmol/L. Besides, the EC50 on human calcium receptor was 0.5 µM.

`Cc1ccc(SC(C)CCCN[C@H](C)c2cccc3ccccc23)c(C)c1` (some centres unmarked) [Compound K-2303]: in the assay with normal male SD rats, the “Plasma Ca^2+ (mmol/l) 0 hr” value was 1.415 mmol/L, the “Plasma Ca^2+ (mmol/l) 1 hr” value worked out at 1.255 mmol/L, the “Plasma Ca^2+ (mmol/l) 2 hr” value stood at 1.165 mmol/L and the “Plasma Ca^2+ (mmol/l) 4 hr” value was found to be 1.020 mmol/L. Further, the “Plasma Ca^2+ (mmol/l) 8 hr” value with normal male SD rats worked out at 1.032 mmol/L. On human calcium receptor, the EC50 came to 0.35 µM.

With `Cc1ccc(SCCCCN[C@H](C)c2cccc3ccccc23)cc1` [Compound K-2304, N-{4-[(4-methylphenyl)thio]butyl}-N-[(1R)-1-(1-naphthyl)ethyl]amine], in the assay on normal male SD rats, the “Plasma Ca^2+ (mmol/l) 1 hr” value came out at 1.262 mmol/L, the “Plasma Ca^2+ (mmol/l) 2 hr” value turned out to be 1.157 mmol/L, the “Plasma Ca^2+ (mmol/l) 4 hr” value was determined as 1.053 mmol/L and the “Plasma Ca^2+ (mmol/l) 8 hr” value was found to be 1.065 mmol/L. For the same molecule, the EC50 on human calcium receptor turned out to be 0.098 µM.

In the case of `Cc1ccc(SCCCCCN[C@H](C)c2cccc3ccccc23)cc1` [Compound K-2305], in the assay with normal male SD rats, the “Plasma Ca^2+ (mmol/l) 0 hr” value is 1.415 mmol/L, the “Plasma Ca^2+ (mmol/l) 1 hr” value worked out at 1.242 mmol/L, the “Plasma Ca^2+ (mmol/l) 2 hr” value was determined as 1.170 mmol/L and the “Plasma Ca^2+ (mmol/l) 4 hr” value amounted to 1.098 mmol/L. Further, the “Plasma Ca^2+ (mmol/l) 8 hr” value in the assay on normal male SD rats stood at 1.202 mmol/L. Also, the EC50 at human calcium receptor came out at 0.11 µM.

In general, EC50 refers to the concentration needed to bring the measured effect to its halfway point.
